Legend:
rOT7T022L = target: T1, rOT7T022L (Rattus norvegicus, UniProt Q9EP86); assay: Site sensor (Cytosensor) acidification rate in rOT7T022L receptor-expressing CHO cells; type: cell-based; details: peptide exposed to cells for 7 minutes and 2 seconds; FIG. 8
T1 construct: expressed in transfected cells
Description: The rOT7T022L receptor-expressing CHO cells obtained in Example 7 (2) above were inoculated on capsules for site sensor in 2.7×10^5 cells/capsule. After incubation overnight, the site sensor was mounted to a workstation for the site sensor. A medium for assay (low buffered RMP11640 medium supplemented with 0.1% bovine serum albumin), which was set in the flow path of the site sensor, was supplied to the cells in a pump cycle of ON (80 seconds) and OFF (40 seconds). A rate of change in […] from 8 to 30 seconds after the pump stopped was calculated as an acidification rate. A change of the acidification rate with passage of time was monitored; when stable reading was obtained, the flow path was switched to expose each peptide to the cells for 7 minutes and 2 seconds. In the acidification rate of each well, the data for 3 cycles immediately before the peptide exposure was made 100% for standardization.

[1] = tested on: pituitary hormone level in plasma; assay: Pituitary hormone level in plasma after administration into the third ventricle; type: in vivo, Wistar rats; details: for plasma prolactin level: vs PBS control
Description: The effect of the peptide shown by SEQ ID NO: 39 administered into the third ventricle on pituitary hormone level in plasma, was explored. Mature male Wistar rats (body weights at operation: about 290-350 g) were anesthetized with 50 mg/kg of pentobarbital, i.p., and each rat was immobilized in a rat brain stereotaxic apparatus. The incisor bar was set 3.3 mm lower from the interaural line. The skull was exposed, and using a dental drill a hole was made on the bone for implantation of a guide cannula.
In addition, an anchor screw was buried in one position around the hole. A stainless-steel guide cannula, AG-12 (0.4 mm inner diameter, 0.5 mm outer diameter, EICOM Co., Ltd.), was inserted in such a manner that its tip would be situated in the upper part of the third ventricle. Following the atlas of Paxinos and Watson (1986), the stereotaxic coordinates were set to AP: +7.2 mm (from the interaural line), L: 0.0 mm, and H: +2.0 mm (from the interaural line). The guide cannula was secured to the skull using instant adhesive, dental cement and an anchor screw. A stainless-steel dummy cannula, AD-12 (0.35 mm outer diameter, EICOM Co., Ltd.), was then passed through the guide cannula and locked in position with a cap nut (EICOM Co., Ltd.). After the operation the rats were housed in individual cages and kept for at least a week for postoperative recuperation before starting the experiment.
The operated rat was anesthetized with 50 mg/kg of pentobarbital, i.p., and immobilized in the dorsal position on a necropsy pad. A catheter (SP35, Natsume Seisakusho Co., Ltd.) was inserted into the right jugular vein. On the following day, 400 μl of blood was drawn through the jugular vein catheter. To prevent clotting, a syringe was filled beforehand with 20 μl of saline containing 200 U/ml of heparin. The cap nut and dummy cannula were removed from the rat skull and instead, a stainless steel microinjection cannula AMI13 (0.17 mm inner diameter, 0.35 mm outer diameter, EICOM Co., Ltd.) connected to a Teflon tube (50 cm long, 0.1 mm inner diameter, 0.4 mm outer diameter, EICOM Co., Ltd.) was inserted. The length of the microinjection cannula was adjusted beforehand so that its tip would be exposed from the guide cannula by 1 mm. One end of the Teflon tube was connected to a microsyringe pump and either PBS or the peptide shown by SEQ ID NO: 39 dissolved in PBS was injected, in a total volume of 10 μl, into the third ventricle at a flow rate of 5 μl/min. After a 1 minute standby time following the infusion, the microinjection cannula was disconnected and the dummy cannula was locked in position again with a cap nut. Immediately before the initiation of intraventricular administration and 10, 20, 30, 40, and 60 minutes after the initiation of administration, 400 μl aliquots of blood were collected via the cannula inserted into the jugular vein. Each blood sample collected was centrifuged (5,000 rpm, 10 min.) with a high-speed refrigerated microcentrifuge (MR-150, Tommy Seiko) and the supernatant (plasma) was recovered. The amount of prolactin in the plasma was determined by radioimmunoassay.
The results were shown in terms of a mean±S.E.M. To examine if there was a significant difference between the group administered with the peptide shown by SEQ ID NO: 39 dissolved in PBS and the control group administered with PBS alone, Student's t-test was used. According to the two-tailed test, the risk percentage of 5% or less was assumed to be statistically significant.

Human 0T7T022 receptor = target: T2, Human 0T7T022 receptor (Homo sapiens, UniProt Q9GZQ6); assay: Effect of pertussis toxin on cAMP production inhibiting activity in human 0T7T022 receptor-expressing CHO cells; type: cell-based; details: 0.1 μM peptide, 1 μM forskolin, 100 ng/ml pertussis toxin overnight; FIG. 15
T2 construct: expressed in transfected cells; host or cells: CHO cells
T2 sequence (Q9GZQ6 whole entry): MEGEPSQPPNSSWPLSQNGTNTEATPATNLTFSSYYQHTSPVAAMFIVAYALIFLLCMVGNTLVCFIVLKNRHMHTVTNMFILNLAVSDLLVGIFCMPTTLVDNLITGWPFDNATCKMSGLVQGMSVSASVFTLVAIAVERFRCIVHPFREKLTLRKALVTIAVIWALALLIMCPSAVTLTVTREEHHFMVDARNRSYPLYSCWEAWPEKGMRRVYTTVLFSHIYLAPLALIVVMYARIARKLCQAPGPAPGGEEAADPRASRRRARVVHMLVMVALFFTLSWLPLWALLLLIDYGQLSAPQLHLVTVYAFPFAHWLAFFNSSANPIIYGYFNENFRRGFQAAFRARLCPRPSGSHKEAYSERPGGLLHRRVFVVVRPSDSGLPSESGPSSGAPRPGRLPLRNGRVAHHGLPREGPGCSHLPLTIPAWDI
Description: Human 0T7T022 receptor-expressing CHO cells obtained in Example 21 were inoculated on a 24-well plate in a concentration of 1×10^5 cells/well. After culturing overnight, the medium was exchanged by a medium added with 100 ng/ml pertussis toxin (Sigma, Inc.) or with a control medium followed by further incubation overnight. The cells were rinsed with Hanks' buffer (HBSS) supplemented with 0.05% BSA and 0.2 mM IBMX and then preincubated at 37° C. for 30 minutes in the same buffer. Next, the cells were incubated at 37° C. for 30 minutes after the buffer was exchanged by Hanks' buffer alone (HBSS) supplemented with 0.05% BSA and 0.2 mM IBMX (black column), or by HBSS further added with 1 μM forskolin only (white column), or by HBSS added with 1 μM forskolin and 0.1 μM RFRP-1-12 (peptide having the 81 (Met) to 92 (Phe) amino acid sequence in SEQ ID NO: 1) (hatched column). After completion of the incubation, cAMP in the cells of each well was extracted and quantified according to the method of cAMP EIA Kit (Amersham, Inc.).

[2] = 10 nmols into the third ventricle

T1 sequence (Q9EP86 whole entry): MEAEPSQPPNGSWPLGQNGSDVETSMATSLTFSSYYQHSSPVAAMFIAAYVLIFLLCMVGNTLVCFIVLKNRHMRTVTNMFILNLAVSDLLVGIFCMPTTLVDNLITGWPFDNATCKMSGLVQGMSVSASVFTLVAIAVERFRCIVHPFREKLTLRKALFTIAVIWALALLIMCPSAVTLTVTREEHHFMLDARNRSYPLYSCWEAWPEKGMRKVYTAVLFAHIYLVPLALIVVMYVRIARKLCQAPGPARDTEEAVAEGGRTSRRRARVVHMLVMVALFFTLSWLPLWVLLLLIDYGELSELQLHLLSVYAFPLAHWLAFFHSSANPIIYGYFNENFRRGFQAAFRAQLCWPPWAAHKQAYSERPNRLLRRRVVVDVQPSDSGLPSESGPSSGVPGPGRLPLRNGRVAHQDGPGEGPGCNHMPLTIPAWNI

Compound: CC(C)C[C@H](NC(=O)[C@H](CC(N)=O)NC(=O)[C@@H]1CCCN1C(=O)[C@@H](N)C(C)C)C(=O)N1CCC[C@H]1C(=O)N[C@@H](CCC(N)=O)C(=O)N[C@@H](CCCNC(=N)N)C(=O)N[C@@H](Cc1ccccc1)C(N)=O
- reaction of rOT7T022L-expressing CHO cells (acidification rate) (rOT7T022L): strongly showed dose-dependent reaction

Compound: H-MPHSFANLPLRF-NH2
- reaction of rOT7T022L-expressing CHO cells (acidification rate) (rOT7T022L): strongly showed dose-dependent reaction
- level of ACTH in plasma [1, 2]: none showed any significant change
- level of GH in plasma [1, 2]: none showed any significant change
- level of LH in plasma [1, 2]: none showed any significant change
- level of TSH in plasma [1, 2]: none showed any significant change
- plasma prolactin level ([1]; 10 minutes after 10 nmols into the third ventricle): tended to increase
- plasma prolactin level ([1]; 20 minutes after 10 nmols into the third ventricle): significantly increased
- plasma prolactin level ([1]; 30 minutes after 10 nmols into the third ventricle): significantly increased
- plasma prolactin level ([1]; 40 minutes after 10 nmols into the third ventricle): significantly increased
- plasma prolactin level ([1]; 60 minutes after 10 nmols into the third ventricle): a significant difference was noted
- cAMP production inhibiting activity in cells treated with pertussis toxin (Human 0T7T022 receptor): lost

From US7662574B2, “Use of a G protein-coupled receptor and its cognizant ligand in the identification of compounds that affect prolactin secretion” (Takeda Pharmaceutical Company Limited, priority 1999, dated 2010)
